Reference: the NIST ThermoML archive (doi:10.1016/j.jct.2005.04.018)
± gives the expanded uncertainty stated by the source.

Details: Liquid, Vibrating tube method

Compound `CCCCCC[n+]1ccn(C)c1.O=S(=O)([N-]S(=O)(=O)C(F)(F)F)C(F)(F)F` has a mass density (298.15 K, 100 kPa) of 1370.81 ± 0.9 kg/m3, a mass density (298.15 K, 1830 kPa) of 1372.13 ± 0.9 kg/m3 and a mass density (298.15 K, 10020 kPa) of 1378.18 ± 0.94 kg/m3. The mass density (298.15 K, 14980 kPa) was 1381.7 ± 0.96 kg/m3, the mass density (298.15 K, 19750 kPa) was 1384.98 ± 0.99 kg/m3 and the mass density (298.15 K, 25860 kPa) was 1389.1 ± 1 kg/m3. It also gave a mass density (298.15 K, 31480 kPa) of 1392.73 ± 1.1 kg/m3, a mass density (298.15 K, 37770 kPa) of 1396.74 ± 1.1 kg/m3 and a mass density (298.15 K, 44170 kPa) of 1400.64 ± 1.2 kg/m3. For the same compound, the mass density (298.15 K, 50750 kPa) was 1404.48 ± 1.3 kg/m3, the mass density (298.15 K, 59590 kPa) was 1409.53 ± 1.4 kg/m3 and the mass density (299.15 K, 100 kPa) was 1369.96 ± 0.9 kg/m3. It also gave a mass density (299.15 K, 1830 kPa) of 1371.27 ± 0.9 kg/m3, a mass density (299.15 K, 10020 kPa) of 1377.3 ± 0.94 kg/m3 and a mass density (299.15 K, 14980 kPa) of 1380.81 ± 0.96 kg/m3. For the same compound, the mass density (299.15 K, 19750 kPa) was 1384.12 ± 0.99 kg/m3, the mass density (299.15 K, 25860 kPa) was 1388.22 ± 1 kg/m3 and the mass density (299.15 K, 31480 kPa) was 1391.88 ± 1.1 kg/m3. For the same compound, the mass density (299.15 K, 37770 kPa) was 1395.86 ± 1.1 kg/m3, the mass density (299.15 K, 44170 kPa) was 1399.77 ± 1.2 kg/m3 and the mass density (299.15 K, 50750 kPa) was 1403.7 ± 1.3 kg/m3. It also gave a mass density (299.15 K, 59590 kPa) of 1408.77 ± 1.4 kg/m3, a mass density (300.15 K, 100 kPa) of 1368.97 ± 0.9 kg/m3 and a mass density (300.15 K, 1830 kPa) of 1370.29 ± 0.9 kg/m3. It also gave a mass density (300.15 K, 10020 kPa) of 1376.36 ± 0.94 kg/m3, a mass density (300.15 K, 14980 kPa) of 1379.86 ± 0.96 kg/m3 and a mass density (300.15 K, 19750 kPa) of 1383.21 ± 0.99 kg/m3. It also gave a mass density (300.15 K, 25860 kPa) of 1387.32 ± 1 kg/m3, a mass density (300.15 K, 31480 kPa) of 1391 ± 1.1 kg/m3 and a mass density (300.15 K, 37770 kPa) of 1395.01 ± 1.1 kg/m3. It also gave a mass density (300.15 K, 44170 kPa) of 1398.88 ± 1.2 kg/m3, a mass density (300.15 K, 50750 kPa) of 1402.84 ± 1.3 kg/m3 and a mass density (300.15 K, 59590 kPa) of 1407.93 ± 1.4 kg/m3. For the same compound, the mass density (301.15 K, 100 kPa) was 1368.11 ± 0.9 kg/m3, the mass density (301.15 K, 1830 kPa) was 1369.42 ± 0.9 kg/m3 and the mass density (301.15 K, 10020 kPa) was 1375.49 ± 0.93 kg/m3. For the same compound, the mass density (301.15 K, 14980 kPa) was 1379.01 ± 0.96 kg/m3, the mass density (301.15 K, 19750 kPa) was 1382.28 ± 0.99 kg/m3 and the mass density (301.15 K, 25860 kPa) was 1386.44 ± 1 kg/m3. The mass density (301.15 K, 31480 kPa) was 1390.11 ± 1.1 kg/m3, the mass density (301.15 K, 37770 kPa) was 1394.07 ± 1.1 kg/m3 and the mass density (301.15 K, 44170 kPa) was 1398.06 ± 1.2 kg/m3. The mass density (301.15 K, 50750 kPa) was 1401.99 ± 1.3 kg/m3, the mass density (301.15 K, 59590 kPa) was 1407.14 ± 1.4 kg/m3 and the mass density (302.15 K, 100 kPa) was 1367.15 ± 0.9 kg/m3. The mass density (302.15 K, 1830 kPa) was 1368.47 ± 0.9 kg/m3, the mass density (302.15 K, 10020 kPa) was 1374.56 ± 0.93 kg/m3 and the mass density (302.15 K, 14980 kPa) was 1378.1 ± 0.96 kg/m3. The mass density (302.15 K, 19750 kPa) was 1381.43 ± 0.99 kg/m3, the mass density (302.15 K, 25860 kPa) was 1385.56 ± 1 kg/m3 and the mass density (302.15 K, 31480 kPa) was 1389.24 ± 1.1 kg/m3. For the same compound, the mass density (302.15 K, 37770 kPa) was 1393.28 ± 1.1 kg/m3, the mass density (302.15 K, 44170 kPa) was 1397.22 ± 1.2 kg/m3 and the mass density (302.15 K, 50750 kPa) was 1401.19 ± 1.3 kg/m3. The mass density (302.15 K, 59590 kPa) was 1406.37 ± 1.4 kg/m3, the mass density (303.15 K, 100 kPa) was 1366.24 ± 0.9 kg/m3 and the mass density (303.15 K, 1830 kPa) was 1367.56 ± 0.9 kg/m3. For the same compound, the mass density (303.15 K, 10020 kPa) was 1373.64 ± 0.93 kg/m3, the mass density (303.15 K, 14980 kPa) was 1377.17 ± 0.96 kg/m3 and the mass density (303.15 K, 19750 kPa) was 1380.47 ± 0.99 kg/m3. For the same compound, the mass density (303.15 K, 25860 kPa) was 1384.59 ± 1 kg/m3, the mass density (303.15 K, 31480 kPa) was 1388.3 ± 1.1 kg/m3 and the mass density (303.15 K, 44170 kPa) was 1396.31 ± 1.2 kg/m3. The mass density (303.15 K, 50750 kPa) was 1400.29 ± 1.3 kg/m3, the mass density (303.15 K, 59590 kPa) was 1405.51 ± 1.4 kg/m3 and the mass density (308.15 K, 100 kPa) was 1361.65 ± 0.89 kg/m3. For the same compound, the mass density (308.15 K, 1830 kPa) was 1362.96 ± 0.9 kg/m3, the mass density (308.15 K, 10020 kPa) was 1369.05 ± 0.93 kg/m3 and the mass density (308.15 K, 14980 kPa) was 1372.62 ± 0.95 kg/m3. It also gave a mass density (308.15 K, 19750 kPa) of 1375.95 ± 0.98 kg/m3, a mass density (308.15 K, 25860 kPa) of 1380.12 ± 1 kg/m3 and a mass density (308.15 K, 31480 kPa) of 1383.86 ± 1.1 kg/m3. The mass density (308.15 K, 37770 kPa) was 1387.93 ± 1.1 kg/m3, the mass density (308.15 K, 44170 kPa) was 1391.98 ± 1.2 kg/m3 and the mass density (308.15 K, 50750 kPa) was 1396.05 ± 1.3 kg/m3. For the same compound, the mass density (308.15 K, 59590 kPa) was 1401.4 ± 1.4 kg/m3, the mass density (313.15 K, 100 kPa) was 1357.01 ± 0.89 kg/m3 and the mass density (313.15 K, 1830 kPa) was 1358.32 ± 0.89 kg/m3.
